Reference: patent US6673364B1, “Liposome having an exchangeable component” (The University of British Columbia, priority 1995, dated 2004)

Assays:
[1] = 31P-NMR phase preference of equimolar DOPE:cholesterol mixtures with bilayer stabilizing component (BSC); assay type: physicochemical
Method: Lipid components were mixed in 1-2 ml of benzene:methanol (95:5, v/v) and then lyophilized for a minimum of 5 hours at a pressure of <60 millitorr using a Virtis lyophilizer equipped with a liquid N2 trap. Multilamellar vesicles (MLVs) were prepared by hydrating the dry lipid mixtures in 150 mM NaCl, buffered with 10 mM Hepes-NaOH, pH 7.4 (Hepes-buffered saline, HBS). Mixtures were vortexed to assist hydration. To produce large unilamellar vesicles (LUVs), MLVs were first frozen in liquid nitrogen and then thawed at 30° C. five times. LUVs were produced by extrusion of the frozen and thawed MLVs ten times through 2 stacked polycarbonate filters of 100 nm pore size at 30° C. and pressures of 200-500 psi (Hope, et al., Biochim. Biophys. Acta, 812:55-65 (1985)).
^31P-NMR spectra were obtained using a temperature controlled Bruker MSL200 spectrometer operating at 81 MHz. Free induction decays were accumulated for 2000 transients using a 4 μs, 90° pulse, 1 sec. interpulse delay, 20 KHz sweep width and Waltz decoupling. A 50 Hz line broadening was applied to the data prior to Fourier transformation. Samples were allowed to equilibrate at the indicated temperature for 30 minutes prior to data accumulation. Lipid concentrations of 30-70 mM were used.

[2] = Lipid mixing (FRET) assay, NaCl-induced fusion of DOPE:DODAC liposomes; conditions: DOPE:DODAC:PEG-lipid 83:15:2, 300 mM NaCl, POPC sink
Method: (§1) Lipid mixtures were prepared as described for NMR measurements. The resultant multilamellar vesicles (MLV) were frozen in liquid nitrogen and then thawed at 30° C. five times. Large unilamellar vesicles (LUV) were produced by extrusion of the frozen and thawed MLV ten times through 2 stacked polycarbonate filters of […] pore size at 30° C. and pressures of 200-500 psi (Hope, et al., Biochim. Biophys. Acta 812:55-65 (1985)).
Lipid mixing was measured by a modification of the fluorescence resonance energy transfer (FRET) assay of Struck, et al. (Biochemistry 20:4093-4099 (1981)). […] Fluorescence emission intensity was measured at 517 nm with excitation at 465 nm both before and after the addition of Triton X-100 (final concentration of 0. 5% or 1% when POPC sink was used). Data is presented as either uncorrected fluorescence intensity for short term assays (<1 hour) or as percentage fusion. […] Maximum fusion was determined using mock fused vesicles containing 0.125 mol % of each fluorescent probe. The percentage fusion was calculated as: [formula]
where F(t)=fluorescence intensity at time t; Fo=fluorescence intensity at zero time; FT=fluorescence intensity in the presence of Triton X-100. […]

[3] = Lipid mixing (FRET) assay, Ca2+-induced fusion of PE:PS LUVs
Method: as §1
Lipid mixing was measured by a modification of the fluorescence resonance energy transfer (FRET) assay of Struck, et al. (Biochemistry 20:4093-4099 (1981)). LUVs were prepared containing the fluorescent lipids, N-(7-nitro-2-1,3-benzoxadiazol-4-yl)-dioleoylphosphatidylethanolamine (NBD-PE) and N-(lissamine rhodamine B sulfonyl)-dipalmitoylphosphatidylethanolamine (Rh-PE) at 0.5 mol %. LUVs (50-60 μM) and a three-fold excess of unlabelled target vesicles were mixed in the fluorimeter at 37° C. for short term assays (≦1 hour), or in sealed cuvettes in a dark water bath at 37° C. for longer assays. For measurements of fusion after PEG-lipid transfer, an excess of liposomes prepared from 1-palmitoyl-2-oleoyl-phosphatidylcholine (POPC) was added as a sink for the PEG-lipid. Fluorescence emission intensity was measured at 517 nm with excitation at 465 nm both before and after the addition of Triton X-100 (final concentration of 0. 5% or 1% when POPC sink was used). Data is presented as either uncorrected fluorescence intensity for short term assays (<1 hour) or as percentage fusion. Light scattering controls were performed by replacing LUVs labelled with 0.5 mol % probes with unlabelled vesicles. Maximum fusion was determined using mock fused vesicles containing 0.125 mol % of each fluorescent probe. The percentage fusion was calculated as: [formula]
where F(t)=fluorescence intensity at time t; Fo=fluorescence intensity at zero time; FT=fluorescence intensity in the presence of Triton X-100. M and L represent the same measurements for the mock fused control and the light scattering control respectively.

[4] = PE:PS LUVs, 2 mol % PE-PEG2000, POPC sink

For “1-O-methyl-(poly(ethoxy)-O-succinyl-O-(egg)ceramide [egg ceramide-PEG2000]”, the “phase preference (31P-NMR)” value ([1]; DOPE:cholesterol:BSC 1:1:0.1, 0 to 60° C.) was “both bilayer and HII phase lipid are in evidence at most temperatures”, the “phase preference (31P-NMR)” value ([1]; equimolar DOPE:cholesterol, BSC 20 mol % of phospholipid (1:1:0.25)) was “exclusively bilayer up to 60 °C” and the “time for 50% maximal fusion” value ([2]; 37° C.) was “over 20 hr”.

With “PEG2000 conjugated to dimyristoylphosphatidylethanolamine [DMPE-PEG2000]” the “time delay (lag phase) prior to fusion” value ([3]; 2, 3, 5 or 10 mol % PEG-lipid, 36fold excess POPC liposomes) was “increase in the time delay prior to fusion with increasing PEG-lipid concentration”, the “concentration sufficient to eliminate (completely inhibit) Ca2+-induced fusion” value ([3]; PE:PS (1:1) LUVs, 5 mM Ca2+, 37° C.) was 2 mol % and the “time at which fusion was essentially complete” value [3, 4] was 40 min. For the same substance, the “extent of fusion at 21 hr” value [2] was < 20 % of maximum.

For “PEG2000 conjugated to dipalmitoylphosphatidylethanolamine [DPPE-PEG2000]”, the “time at which fusion was essentially complete” value [3, 4] was 1440 min and the “implied decrease in rate of transfer (acyl chains 14 to 16 carbons)” value ([3]; relative to DMPE-PEG2000) was 30-40 fold.

For “PEG2000 conjugated to distearoylphosphatidylethanolamine [DSPE-PEG2000]”, the “level of fusion after 24 hours” value [3, 4] was 20 % of maximum.
